Assay results published in patent US20160324992A1, “IDENTIFICATION AND TREATMENT OF VULNERABLE PLAQUES” (OTTAWA HEART INSTITUTE RESEARCH CORPORATION, priority 2015, published 2016).

Tests used:
[1] = system: bone-marrow-derived macrophages (BMDMs); format: cell-based
Experimental: (§1) Bone-marrow derived macrophages. Bone-marrow derived macrophages (BMDMs) were isolated from femurs of adult VVT or Rip3^−/− mice and differentiated into macrophages using DMEM supplemented with 10% FBS and 1% penicillin-streptomycin plus either 20% L929 conditioned media or 20 ng/mL mouse M-CSF for 7-10 days. To polarize macrophages to M1 or M2, BMDMs were incubated on day 7 with 1 μg/mL LPS and 100 ng/mL IFNγ or 10 ng/mL IL-4 respectively for 24 h. Damage Associated Molecular Patterns (DAMPs) were obtained by subjecting BMDMs to 3×30 min freeze-thaw cycle or treatment with 100 ng/mL LPS and 50 μM zVAD.fmk for 24 hours, after which the media was collected and added to naïve cells at indicated ratios.
(§2) Cell viability assays. Cell death was determined by measuring lactate dehydrogenase (LDH) release into the media. Briefly, cells were treated with 100 μg/ml oxLDL in the presence or absence of 25 μM zVAD.fmk or 50 μM necrostatin-1 (Nec-1) for 24 hours and media was collected and centrifuged to pellet cell debris. The amount of LDH in media was measured in a kinetic assay by adding PBS containing 0.02% NADH and 0.03% sodium pyruvate and measuring absorbance at 340 nm for 10 minutes at 1 minute intervals. The slope of the curve provides a measure of cell death, which was expressed as fold change relative to control.
as §1, with “Rip3−/−” for “Rip3^−/−”
as §2, with “ug/ml” for “μg/ml”, “uM” for “μM”

[2] = system: RIP3; test: Western blot of RIP3 phosphorylation (band shift) in BMDMs; format: cell-based, mouse
Experimental: (§3) Western blot analysis. For western blot analysis of RIP3, cells were lysed in 1.25×sample buffer (83 mM Tris pH 6.8, 6.7% SDS, 13.3% Glycerol, 1.3% β-mercaptoethanol, 0.03% bromophenol blue) and boiled at 100° C. for 5 minutes prior to being subjected to SDS-PAGE and western blot analysis as previously described (Robinson et al., 2012). PVDF membranes were blocked with 5% skim milk, followed by incubation with RIP3 (ProSci Inc, 1:500) or HSP90 (Santa Cruz Biotechnology, 1:1000) antibodies. For analysis of MLKL protein, cells were lysed in ice-cold M2 lysis buffer (50 mM NaF, 20 mM Tris, pH 7.0, 0.5% NP40, 250 mM NaCl, 3 mM EDTA, 3 mM EGTA, supplemented with Roche protease and phosphatase inhibitor cocktails) for 30 mins before centrifugation to pellet insoluble component. Samples were mixed 3:1 with 4×sample loading buffer (Bio-Rad) prior to SDS PAGE and western blot analysis. PVDF membranes were blocked in 5% BSA and probed with MLKL (Millipore, 1:500) or GAPDH (Millipore, 1:1000) antibodies. Goat anti-mouse (1:2500) or anti-rabbit (1:5000) or anti-rat (1:2500) IRDye® secondary antibodies (Rockland) were utilized. The protein bands were visualized using Odyssey Infrared Imaging System (LI-COR Biotechnology).
Western blot analysis. […]

[3] = system: MLKL; test: Western blot of pMLKL in BMDMs; format: cell-based, mouse
Experimental: as §3, with “1.25× sample” for “1.25×sample”, “analysis.” for “analysis as previously described (Robinson et al., 2012).”, “4× sample” for “4×sample”, “(Bio-rad)” for “(Bio-Rad)”

## CN1C(=O)C(Cc2c[nH]c3ccccc23)NC1=S (stereo not shown) [Nec-1, necrostatin-1]
[1]
  cell death with compound alone (in words): did not promote cell death
[1]; BMDMs, 100 μg/mL oxLDL + 50 μM Nec-1, 24 h, oxLDL alone 3.9±0.6-fold, mean±SEM
  cell death (LDH release), fold change relative to control: 2.3±0.4 fold
[1]; BMDMs, oxLDL + zVAD.fmk + Nec-1, 24 h
  inhibition of oxLDL+zVAD.fmk-induced cell death (in words): similarly inhibited
[1]; M2-polarized macrophages, oxLDL 24 h
  inhibition of oxLDL-induced cell death (in words): similarly inhibited
[2]; BMDMs co-incubated with oxLDL and DAMPs, 8 hours
  RIP3 phosphorylation induced by oxLDL and DAMPs (in words): can be inhibited
[2]; BMDMs, oxLDL±zVAD.fmk±Nec-1, 8 hours
  oxLDL-induced RIP3 phosphorylation (in words): dampened
[3]
  oxLDL-induced MLKL phosphorylation (in words): dampened
